According to PubChem BioAssay (NCI):
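Five concentrations, 48 hours, 96-well plates. GI50: concentration for 50% inhibition of growth. TGI denotes the concentration required for complete inhibition of growth.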

What was measured:
Assay in all cases: NCI tumour cell line growth inhibition, 48 h
A498 renal = tested on: A498 renal
SK-MEL-5 melanoma = tested on: SK-MEL-5 melanoma
SF-295 CNS = tested on: SF-295 CNS
RXF 393 renal = tested on: RXF 393 renal
SF-268 CNS = tested on: SF-268 CNS
HOP-92 NSCLC = tested on: HOP-92 NSCLC
DU-145 prostate = tested on: DU-145 prostate
PC-3 prostate = tested on: PC-3 prostate
UO-31 renal = tested on: UO-31 renal
HCT-15 colon = tested on: HCT-15 colon
M14 melanoma = tested on: M14 melanoma
NCI-H23 lung = tested on: NCI-H23 lung
SNB-19 CNS = tested on: SNB-19 CNS
OVCAR-5 ovarian = tested on: OVCAR-5 ovarian
LOX IMVI melanoma = tested on: LOX IMVI melanoma
COLO 205 colon = tested on: COLO 205 colon
MDA-MB-468 breast = tested on: MDA-MB-468 breast
MCF7 breast = tested on: MCF7 breast
MOLT-4 leukemia = tested on: MOLT-4 leukemia
CAKI-1 renal = tested on: CAKI-1 renal
BT-549 breast = tested on: BT-549 breast
ACHN renal = tested on: ACHN renal
SK-OV-3 ovarian = tested on: SK-OV-3 ovarian
MDA-MB-231 breast = tested on: MDA-MB-231 breast
T-47D breast = tested on: T-47D breast
786-0 renal = tested on: 786-0 renal
SK-MEL-2 melanoma = tested on: SK-MEL-2 melanoma
KM12 colon = tested on: KM12 colon
SF-539 CNS = tested on: SF-539 CNS
HS 578T breast = tested on: HS 578T breast
SN12C renal = tested on: SN12C renal
NCI-H460 lung = tested on: NCI-H460 lung
K-562 leukemia = tested on: K-562 leukemia
EKVX NSCLC = tested on: EKVX NSCLC
RPMI-8226 leukemia = tested on: RPMI-8226 leukemia
NCI-H522 lung = tested on: NCI-H522 lung
SK-MEL-28 melanoma = tested on: SK-MEL-28 melanoma
HOP-62 NSCLC = tested on: HOP-62 NSCLC
HCC-2998 colon = tested on: HCC-2998 colon
SNB-75 CNS = tested on: SNB-75 CNS
HT29 colon = tested on: HT29 colon
TK-10 renal = tested on: TK-10 renal
U251 CNS = tested on: U251 CNS
UACC-257 melanoma = tested on: UACC-257 melanoma
CCRF-CEM leukemia = tested on: CCRF-CEM leukemia
OVCAR-3 ovarian = tested on: OVCAR-3 ovarian
A549 NSCLC = tested on: A549 NSCLC
MDA-MB-435 = tested on: MDA-MB-435
HCT-116 colon = tested on: HCT-116 colon
NCI/ADR-RES ovarian = tested on: NCI/ADR-RES ovarian
HL-60(TB) leukemia = tested on: HL-60(TB) leukemia
NCI-H226 lung = tested on: NCI-H226 lung
UACC-62 melanoma = tested on: UACC-62 melanoma
OVCAR-4 ovarian = tested on: OVCAR-4 ovarian
SW-620 colon = tested on: SW-620 colon
OVCAR-8 ovarian = tested on: OVCAR-8 ovarian
IGROV1 ovarian = tested on: IGROV1 ovarian
MALME-3M melanoma = tested on: MALME-3M melanoma

`CCCSc1nc(Nc2ccc(S(N)(=O)=O)cc2)c(C#N)c(-c2cc(OC)c(OC)c(OC)c2)n1` was tested, and the GI50 (A498 renal) was > 100 µM, the TGI (A498 renal) was > 100 µM and the GI50 (SK-MEL-5 melanoma) was 2.75 µM. For the same compound, the TGI (SK-MEL-5 melanoma) was 12.1 µM, the GI50 (SF-295 CNS) was 3.75 µM and the TGI (SF-295 CNS) was 28.3 µM. The GI50 (RXF 393 renal) was 2.36 µM, the TGI (RXF 393 renal) was 9.67 µM and the GI50 (SF-268 CNS) was 9.84 µM. For the same compound, the TGI (SF-268 CNS) was > 100 µM, the GI50 (HOP-92 NSCLC) was 3.98 µM and the TGI (HOP-92 NSCLC) was 63.6 µM. The GI50 (DU-145 prostate) was 7.93 µM, the TGI (DU-145 prostate) was > 100 µM and the GI50 (PC-3 prostate) was 2.8 µM. The TGI (PC-3 prostate) was > 100 µM, the GI50 (UO-31 renal) was 2.59 µM and the TGI (UO-31 renal) was > 100 µM. The GI50 (HCT-15 colon) was 3.4 µM, the TGI (HCT-15 colon) was > 100 µM and the GI50 (M14 melanoma) was 6.74 µM. The TGI (M14 melanoma) was > 100 µM, the GI50 (NCI-H23 lung) was 15.7 µM and the TGI (NCI-H23 lung) was > 100 µM. For the same compound, the GI50 (SNB-19 CNS) was 11.7 µM, the TGI (SNB-19 CNS) was > 100 µM and the GI50 (OVCAR-5 ovarian) was 32.7 µM. For the same compound, the TGI (OVCAR-5 ovarian) was > 100 µM, the GI50 (LOX IMVI melanoma) was 3.68 µM and the TGI (LOX IMVI melanoma) was > 100 µM. The GI50 (COLO 205 colon) was 8.77 µM, the TGI (COLO 205 colon) was > 100 µM and the GI50 (MDA-MB-468 breast) was 6.22 µM. For the same compound, the TGI (MDA-MB-468 breast) was 65.4 µM, the GI50 (MCF7 breast) was 4.23 µM and the TGI (MCF7 breast) was > 100 µM. It also gave a GI50 (MOLT-4 leukemia) of 2.53 µM, a TGI (MOLT-4 leukemia) of 8.95 µM and a GI50 (CAKI-1 renal) of 5.76 µM. For the same compound, the TGI (CAKI-1 renal) was > 100 µM, the GI50 (BT-549 breast) was 3.24 µM and the TGI (BT-549 breast) was 32.5 µM. For the same compound, the GI50 (ACHN renal) was 4.88 µM, the TGI (ACHN renal) was > 100 µM and the GI50 (SK-OV-3 ovarian) was 55.1 µM. The TGI (SK-OV-3 ovarian) was > 100 µM, the GI50 (MDA-MB-231 breast) was 7.23 µM and the TGI (MDA-MB-231 breast) was > 100 µM. It also gave a GI50 (T-47D breast) of 2.76 µM, a TGI (T-47D breast) of 51 µM and a GI50 (786-0 renal) of 10.4 µM. The TGI (786-0 renal) was > 100 µM, the GI50 (SK-MEL-2 melanoma) was 11.8 µM and the TGI (SK-MEL-2 melanoma) was > 100 µM. The GI50 (KM12 colon) was 4.77 µM, the TGI (KM12 colon) was > 100 µM and the GI50 (SF-539 CNS) was 21.4 µM. The TGI (SF-539 CNS) was > 100 µM, the GI50 (HS 578T breast) was 7.33 µM and the TGI (HS 578T breast) was > 100 µM. For the same compound, the GI50 (SN12C renal) was 5.77 µM, the TGI (SN12C renal) was > 100 µM and the GI50 (NCI-H460 lung) was 5.46 µM. For the same compound, the TGI (NCI-H460 lung) was > 100 µM, the GI50 (K-562 leukemia) was 3.52 µM and the TGI (K-562 leukemia) was > 100 µM. For the same compound, the GI50 (EKVX NSCLC) was 5.27 µM, the TGI (EKVX NSCLC) was > 100 µM and the GI50 (RPMI-8226 leukemia) was 3.56 µM. For the same compound, the TGI (RPMI-8226 leukemia) was > 100 µM, the GI50 (NCI-H522 lung) was 10.7 µM and the TGI (NCI-H522 lung) was > 100 µM. For the same compound, the GI50 (SK-MEL-28 melanoma) was 7.29 µM, the TGI (SK-MEL-28 melanoma) was > 100 µM and the GI50 (HOP-62 NSCLC) was 11.1 µM. For the same compound, the TGI (HOP-62 NSCLC) was > 100 µM, the GI50 (HCC-2998 colon) was 7.53 µM and the TGI (HCC-2998 colon) was > 100 µM. The GI50 (SNB-75 CNS) was 2.09 µM, the TGI (SNB-75 CNS) was > 100 µM and the GI50 (HT29 colon) was 6.89 µM. For the same compound, the TGI (HT29 colon) was > 100 µM, the GI50 (TK-10 renal) was 16.1 µM and the TGI (TK-10 renal) was > 100 µM. The GI50 (U251 CNS) was 5.37 µM, the TGI (U251 CNS) was > 100 µM and the GI50 (UACC-257 melanoma) was 19.2 µM. The TGI (UACC-257 melanoma) was > 100 µM, the GI50 (CCRF-CEM leukemia) was 3.44 µM and the TGI (CCRF-CEM leukemia) was > 100 µM. The GI50 (OVCAR-3 ovarian) was 6.07 µM, the TGI (OVCAR-3 ovarian) was > 100 µM and the GI50 (A549 NSCLC) was 4.31 µM. For the same compound, the TGI (A549 NSCLC) was > 100 µM, the GI50 (MDA-MB-435) was 4.9 µM and the TGI (MDA-MB-435) was > 100 µM. The GI50 (HCT-116 colon) was 4.38 µM, the TGI (HCT-116 colon) was > 100 µM and the GI50 (NCI/ADR-RES ovarian) was 4.6 µM. For the same compound, the TGI (NCI/ADR-RES ovarian) was > 100 µM, the GI50 (HL-60(TB) leukemia) was 2.93 µM and the TGI (HL-60(TB) leukemia) was 33.2 µM. For the same compound, the GI50 (NCI-H226 lung) was 6.07 µM, the TGI (NCI-H226 lung) was > 100 µM and the GI50 (UACC-62 melanoma) was 6.25 µM. For the same compound, the TGI (UACC-62 melanoma) was > 100 µM, the GI50 (OVCAR-4 ovarian) was 6.39 µM and the TGI (OVCAR-4 ovarian) was > 100 µM. For the same compound, the GI50 (SW-620 colon) was 8.34 µM, the TGI (SW-620 colon) was > 100 µM and the GI50 (OVCAR-8 ovarian) was 5 µM. The TGI (OVCAR-8 ovarian) was > 100 µM, the GI50 (IGROV1 ovarian) was 25.9 µM and the TGI (IGROV1 ovarian) was > 100 µM. The GI50 (MALME-3M melanoma) was 5.78 µM and the TGI (MALME-3M melanoma) was 75.4 µM.
